Patent US8802597B2, “Herbicidal pyrimidines” (E I du Pont de Nemours and Company, priority 2003, dated 2014)
Read-outs that look alike come from different tables or passages of the source.

What was measured:
Type in all cases: in vivo
[1] = test system: rice (Oryza sativa); assay: Test C flooded paddy test; details: Flood, scale 0 to 100
In short: (§1)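 Plants were grown to the 2-leaf stage in a flooded paddy, treated, and kept in a greenhouse with untreated controls for 12 to 14 days. Injury was then scored visually against controls on a 0–100 scale, where 0 means no effect and 100 complete control.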

[2] = test system: umbrella sedge (Cyperus difformis); assay: Test C flooded paddy test; details: Flood, scale 0 to 100
In short: as §1

[3] = test system: duck salad (Heteranthera limosa); assay: Test C flooded paddy test; details: Flood, scale 0 to 100
In short: as §1

[4] = test system: barnyardgrass (Echinochloa crus-galli); assay: Test C flooded paddy test; details: Flood
In short: as §1

[5] = test system: common ragweed (Ambrosia elatior); assay: Test C pre/postemergence; details: for pest or weed control at 62 g/ha / pest or weed control at 125 g/ha / pest or weed control at 250 g/ha / pest or weed control at 500 g/ha: Ambrosia artemisiifolia; for pest or weed control at 250 g/ha: 250 g ai/ha; for pest or weed control at 500 g/ha: 500 g ai/ha
In short: (§2)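 Percent control is a visual rating (0 none, 100 complete) taken against untreated plants after 12 to 14 days of greenhouse growth. Applications were made preemergence to seeded pots and postemergence to plants at the 1- to 4-leaf stage, in a non-phytotoxic surfactant-containing solvent.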

[6] = test system: eastern black nightshade (Solanum ptycanthum); assay: Test C pre/postemergence; details: Preemergence
In short: as §2

[7] = test system: bermudagrass (Cynodon dactylon); assay: Test C pre/postemergence; details: for pest or weed control at 62 g/ha / pest or weed control at 125 g/ha / pest or weed control at 250 g/ha / pest or weed control at 500 g/ha: Cynodon dactylon; for pest or weed control at 250 g/ha: 250 g ai/ha; for pest or weed control at 500 g/ha: 500 g ai/ha
In short: as §2

[8] = 500 g ai/ha, scale 0 to 100 (0 no effect, 100 complete control)
[9] = post-emergence, Postemergence, scale 0 to 100, read-out: Plant response rating, Ragweed
[10] = pre-emergence, Preemergence, scale 0 to 100, read-out: Plant response rating, Ragweed
[11] = post-emergence, Postemergence, scale 0 to 100, read-out: Plant response rating, Bermudagrass
[12] = pre-emergence, Preemergence, scale 0 to 100, read-out: Plant response rating, Bermudagrass
[13] = Postemergence, 62 g ai/ha, scale 0 to 100 (0 no effect, 100 complete control)
[14] = Preemergence, 16 g ai/ha, scale 0 to 100, 0 no effect, 100 complete control
[15] = Preemergence, 31 g ai/ha, scale 0 to 100, 0 no effect, 100 complete control
[16] = Preemergence, 62 g ai/ha, scale 0 to 100, 0 no effect, 100 complete control
[17] = Preemergence, 125 g ai/ha, scale 0 to 100

CCOC(=O)c1nc(C2CC2)nc(N)c1Cl [Compound 4, ethyl 6-amino-5-chloro-2-cyclopropyl-4-pyrimidinecarboxylate] was tested, and the “Plant response rating, Rice” value ([1]; 62 g ai/ha) was 0, the “Plant response rating, Rice” value ([1]; 125 g ai/ha) was 40 and the “Plant response rating, Rice” value ([1]; 250 g ai/ha) was 75. For the same compound, the “Plant response rating, Rice” value ([1]; 500 g ai/ha) was 80, the “Plant response rating, Sedge, Umbrella” value ([2]; 62 g ai/ha) was 0 and the “Plant response rating, Sedge, Umbrella” value ([2]; 125 g ai/ha) was 30. The “Plant response rating, Sedge, Umbrella” value ([2]; 250 g ai/ha) was 65, the “Plant response rating, Sedge, Umbrella” value ([2]; 500 g ai/ha) was 75 and the “Plant response rating, Ducksalad” value ([3]; 62 g ai/ha) was 70. For the same compound, the “Plant response rating, Ducksalad” value ([3]; 125 g ai/ha) was 80, the “Plant response rating, Ducksalad” value ([3]; 250 g ai/ha) was 90 and the “Plant response rating, Ducksalad” value ([3]; 500 g ai/ha) was 100. For the same compound, the “Plant response rating, Barnyardgrass” value ([4]; 62 g ai/ha, scale 0 to 100) was 0, the “Plant response rating, Barnyardgrass” value ([4]; 125 g ai/ha, scale 0 to 100) was 60 and the “Plant response rating, Barnyardgrass” value ([4]; 250 g ai/ha, scale 0 to 100) was 65. The “Plant response rating, Barnyardgrass” value [4, 8] was 85, the pest or weed control at 62 g/ha ([5]; post-emergence, Postemergence, 62 g ai/ha, scale 0 to 100 (0 no effect, 100 complete control), read-out: Ragweed plant response rating) was 100% and the pest or weed control at 125 g/ha ([5]; post-emergence, Postemergence, 125 g ai/ha, scale 0 to 100 (0 no effect, 100 complete control), read-out: Ragweed plant response rating) was 100%. The pest or weed control at 250 g/ha [5, 9] was 100%, the pest or weed control at 500 g/ha [5, 9] was 100% and the pest or weed control at 62 g/ha ([5]; pre-emergence, Preemergence, 62 g ai/ha, scale 0 to 100, 0 no effect, 100 complete control, read-out: Plant response rating, Ragweed) was 100%. The pest or weed control at 125 g/ha ([5]; pre-emergence, Preemergence, 125 g ai/ha, scale 0 to 100, read-out: Plant response rating, Ragweed) was 100%, the pest or weed control at 250 g/ha [5, 10] was 100% and the pest or weed control at 500 g/ha [5, 10] was 100%. The pest or weed control at 62 g/ha ([6]; Solanum, pre-emergence, 62 g ai/ha, scale 0 to 100, 0 no effect, 100 complete control, read-out: Plant response rating, Nightshade) was 100%, the pest or weed control at 125 g/ha ([6]; Solanum, pre-emergence, 125 g ai/ha, scale 0 to 100, read-out: Plant response rating, Nightshade) was 100% and the pest or weed control at 250 g/ha ([6]; Solanum, pre-emergence, 250 g ai/ha, scale 0 to 100, read-out: Plant response rating, Nightshade) was 100%. For the same compound, the pest or weed control at 500 g/ha ([6]; Solanum, pre-emergence, 500 g ai/ha, scale 0 to 100, read-out: Plant response rating, Nightshade) was 100%, the pest or weed control at 62 g/ha ([7]; post-emergence, Postemergence, 62 g ai/ha, scale 0 to 100 (0 no effect, 100 complete control), read-out: Bermudagrass plant response rating) was 40% and the pest or weed control at 125 g/ha ([7]; post-emergence, Postemergence, 125 g ai/ha, scale 0 to 100, read-out: Plant response rating, Bermudagrass) was 65%. It also gave a pest or weed control at 250 g/ha [7, 11] of 70%, a pest or weed control at 500 g/ha [7, 11] of 80% and a pest or weed control at 62 g/ha ([7]; pre-emergence, Preemergence, 62 g ai/ha, scale 0 to 100, 0 no effect, 100 complete control, read-out: Plant response rating, Bermudagrass) of 0%. For the same compound, the pest or weed control at 125 g/ha ([7]; pre-emergence, Preemergence, 125 g ai/ha, scale 0 to 100, read-out: Plant response rating, Bermudagrass) was 20%, the pest or weed control at 250 g/ha [7, 12] was 45% and the pest or weed control at 500 g/ha [7, 12] was 95%.
For COC(=O)c1nc(C2CC2)nc(N=CN(C)C)c1Br [Compound 19], the “Plant response rating, Rice” value ([1]; 62 g ai/ha) was 0, the “Plant response rating, Rice” value ([1]; 125 g ai/ha) was 0 and the “Plant response rating, Rice” value ([1]; 250 g ai/ha) was 10. For the same compound, the “Plant response rating, Rice” value ([1]; 500 g ai/ha) was 20, the “Plant response rating, Sedge, Umbrella” value ([2]; 62 g ai/ha) was 20 and the “Plant response rating, Sedge, Umbrella” value ([2]; 125 g ai/ha) was 50. The “Plant response rating, Sedge, Umbrella” value ([2]; 250 g ai/ha) was 50, the “Plant response rating, Sedge, Umbrella” value ([2]; 500 g ai/ha) was 50 and the “Plant response rating, Ducksalad” value ([3]; 62 g ai/ha) was 20. For the same compound, the “Plant response rating, Ducksalad” value ([3]; 125 g ai/ha) was 40, the “Plant response rating, Ducksalad” value ([3]; 250 g ai/ha) was 60 and the “Plant response rating, Ducksalad” value ([3]; 500 g ai/ha) was 60. For the same compound, the “Plant response rating, Barnyardgrass” value ([4]; 62 g ai/ha, scale 0 to 100) was 0, the “Plant response rating, Barnyardgrass” value ([4]; 125 g ai/ha, scale 0 to 100) was 0 and the “Plant response rating, Barnyardgrass” value ([4]; 250 g ai/ha, scale 0 to 100) was 0. The “Plant response rating, Barnyardgrass” value [4, 8] was 60, the “Plant response rating (scale of 0 to 100), Ragweed” value ([5]; Postemergence, 16 g ai/ha) was 35 and the “Plant response rating (scale of 0 to 100), Ragweed” value ([5]; Postemergence, 31 g ai/ha) was 40. For the same compound, the “Ragweed plant response rating” value [5, 13] was 70, the “Ragweed plant response rating” value ([5]; Postemergence, 125 g ai/ha, scale 0 to 100 (0 no effect, 100 complete control)) was 80 and the “Plant response rating, Ragweed” value [5, 14] was 55. The “Plant response rating, Ragweed” value [5, 15] was 55, the “Plant response rating, Ragweed” value [5, 16] was 70 and the “Plant response rating, Ragweed” value [5, 17] was 80. For the same compound, the “Plant response rating, Nightshade” value ([6]; 16 g ai/ha, scale 0 to 100, 0 no effect, 100 complete control) was 0, the “Plant response rating, Nightshade” value ([6]; 31 g ai/ha, scale 0 to 100, 0 no effect, 100 complete control) was 40 and the “Plant response rating, Nightshade” value ([6]; 62 g ai/ha, scale 0 to 100, 0 no effect, 100 complete control) was 100. The “Plant response rating, Nightshade” value ([6]; 125 g ai/ha, scale 0 to 100) was 100, the “Plant response rating (scale of 0 to 100), Bermudagrass” value ([7]; Postemergence, 16 g ai/ha) was 0 and the “Plant response rating (scale of 0 to 100), Bermudagrass” value ([7]; Postemergence, 31 g ai/ha) was 5. The “Bermudagrass plant response rating” value [7, 13] was 30, the “Plant response rating, Bermudagrass” value ([7]; Postemergence, 125 g ai/ha, scale 0 to 100) was 45 and the “Plant response rating, Bermudagrass” value [7, 14] was 0. For the same compound, the “Plant response rating, Bermudagrass” value [7, 15] was 0, the “Plant response rating, Bermudagrass” value [7, 16] was 0 and the “Plant response rating, Bermudagrass” value [7, 17] was 0.
